Measured values published in patent publication US20230384333A1 (priority 2020, published 2023).
Entries after “also recorded” stand apart in the source; their conditions may differ.

Experiments:
[1] = tested on: psychLight; assay: Schild regression analysis in PSYLI2 cells; assay type: cell-based, human
Method: During imaging, […] of imaging media were added to each well of the assay plate. Wells were then imaged on a Lecia DMi8 using Leica Application Suite X (V3.6.0.20104) at 40×(N.A.=0.6) with 5 regions of interest (ROI) taken per well using the default 5 ROI pattern for each well with no bias to location and no overlap of the ROIs (exposure=350 ms, LED power=80%). Next, […] from the treatment plate was transferred to the assay plate for a final 1:1000 dilution of drug. All final drug treatments contained 0.1% DMSO. After 5 min of incubation, the same sites were re-imaged using the same settings. The data analysis method was the same as in agonist and antagonist mode.

[2] = molecular target: T1, psychLight1 (Homo sapiens, UniProt P28223, E264Q/I181A); assay type: cell-based
T1 sequence (P28223 whole entry I181A/E264Q, looked up): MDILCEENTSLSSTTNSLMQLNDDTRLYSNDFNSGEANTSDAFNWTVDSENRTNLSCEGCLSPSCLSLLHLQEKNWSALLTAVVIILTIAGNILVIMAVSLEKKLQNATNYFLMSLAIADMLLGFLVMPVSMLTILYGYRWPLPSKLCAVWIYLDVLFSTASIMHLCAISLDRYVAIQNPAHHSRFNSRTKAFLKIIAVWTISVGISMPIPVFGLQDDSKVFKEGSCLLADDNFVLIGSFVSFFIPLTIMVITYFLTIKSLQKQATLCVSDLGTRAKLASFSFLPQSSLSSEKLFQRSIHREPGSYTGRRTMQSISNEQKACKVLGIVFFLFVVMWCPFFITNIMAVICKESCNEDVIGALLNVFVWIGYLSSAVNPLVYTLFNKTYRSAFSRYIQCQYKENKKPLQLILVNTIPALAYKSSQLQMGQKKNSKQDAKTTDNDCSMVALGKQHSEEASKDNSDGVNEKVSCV

[3] = tested on: psychLight2; assay: PSYLI2 high-content imaging, agonist mode; assay type: cell-based, human; parameters: dose or concentration left out as unconfirmed
[4] = molecular target: T1, psychLight1; assay: cell-based; assay type: cell-based; parameters: fluorescence intensity change, confocal with psychLight1: dose or concentration left out as unconfirmed; settings: n=3
Method: HEK293T cells were grown in DMEM, supplemented with fetal bovine serum (FBS) and penicillin-streptomycin. Cells were trans-fected with Effectene according to the manufacturer's instructions. Prior to imaging, cells were washed with Hank's Balanced Salt Solution (HBSS) supplemented with 2 mM MgCl2 and 2 mM CaCl2). All images were collected in HBSS containing Mg^2+ and Ca^2+.
HEK293T cells were plated and transfected concurrently 24 h prior to each experiment using the QIAGEN Effectene Transfection
Dose-response experiments were performed using an Automate Perfusion System. Cells (HEK293T) were grown on 12 mm cover-slips and transfected with psychLight1. The coverslips were then placed into a coverslip holder and washed with 5 mL of HBSS containing 2 mM MgCl2 and 2 mM CaCl2). Cells were perfused first with 5 mL of 0.1% DMSO, then drugs in ascending concentrations from 1 pM to […] were added, with the concentration of DMSO being held constant at 0.10%. […] For the competition studies described in FIG. 19, HEK293T cells were prepared as described above; however, the cells were first exposed to 5 mL of 0.2% DMSO. […] Analysis was performed by taking 3 ROIs on the cell membrane using ImageJ and calculating the mean intensity for each ROI across the time-points. Finally, the DF/F was calculated using the average of the baseline (0.1 or 0.2% DMSO) and the average intensity between each dosage over the average of the baseline.

For `COc1ccc2c(CCN(C)C)c[nH]c2c1` [6-MeO, 6-methoxy-N,N-dimethyltrypta-mine], the “Schild regression (pA2) outcome” value [1] was “significantly less potent”, the “binding shown by competing off 5-HT” value [2] was “capable of binding to the receptor despite the fact that they lack efficacy; also recorded: capable of binding to the receptor despite lacking efficacy; also recorded: can compete off 5-HT resulting in a reduction in psychLight fluorescence” and the “fluorescence intensity change, high content imager with psychLight2” value [3] was −3.0±2.7%. For the same molecule, the “fluorescence intensity change, confocal with psychLight1” value [4] was −1.1±4.6%.
